According to ChEMBL document CHEMBL2384934, “Discovery of 3-phenyl-1H-5-pyrazolylamine derivatives containing a urea pharmacophore as potent and efficacious inhibitors of FMS-like tyrosine kinase-3 (FLT3)” (Bioorg Med Chem, 2013):
Activity calls are given as the source filed them. The rule behind the calls is not given here.

How the values were obtained:
Mus musculus [1] = assay: Toxicity in nu/nu mouse xenografted with human MOLM13 cells at 1 to 10 mg/kg, iv qd administered on days 1 to 5 and day 8 to 12; type: organism-based, MOLM-13; set-up: route intravenous; conditions: in vivo
MOLM-13 [2] = assay: Antitumor activity against human MOLM13 cells xenografted in nu/nu mouse at 10 mg/kg, iv qd administered on days 1 to 5 and days 8 to 12 measured on day 16; type: functional; conditions: MOLM-13, 384 h, read-out: TGI
MOLM-13 [3] = assay: Antitumor activity against human MOLM13 cells xenografted in nu/nu mouse at 3 mg/kg, iv qd administered on days 1 to 5 and days 8 to 12; type: functional, organism-based; set-up: dose 3 mg/kg
MOLM-13 [4] = assay: Antitumor activity against human MOLM13 cells xenografted in nu/nu mouse at 1mg/kg, iv qd administered on days 1 to 5 and days 8 to 12 measured for 5 days; type: functional, organism-based
Mus musculus [5] = assay: Toxicity in mouse assessed as loss of body weight at 25 mg/kg, iv for 5 days; type: organism-based; set-up: dose 25 mg/kg, route intravenous; conditions: in vivo, 120 h
Mus musculus [6] = assay: Toxicity in mouse assessed as mortality at 25 mg/kg, iv for 5 days; type: organism-based; set-up: dose 25 mg/kg, route intravenous; conditions: in vivo, 120 h
[7] = Oral bioavailability in Sprague-Dawley rat at 10 mg/kg; type: ADME, organism-based; conditions: in vivo
[8] = Half life in Sprague-Dawley rat at 2 mg/kg, iv; type: ADME, organism-based; set-up: dose 2 mg/kg, route intravenous; conditions: in vivo
[9] = AUC (0 to infinity) in Sprague-Dawley rat at 2 mg/kg, iv; type: ADME, organism-based; set-up: time infinity, dose 2 mg/kg, route intravenous; conditions: plasma
[10] = target: Receptor-type tyrosine-protein kinase FLT3 (Homo sapiens, UniProt P36888, ITD); assay: Inhibition of FLT3/ITD mutant phosphorylation in human MV4-11 cells after 1 hr by Western blot analysis; type: cell-based
[11] = target: Platelet-derived growth factor receptor alpha (Homo sapiens) (UniProt P16234); assay: Inhibition of PDGFRA (unknown origin) at 1 uM by kinase Glo assay
Sequence of Platelet-derived growth factor receptor alpha (Homo sapiens) (P16234 whole entry): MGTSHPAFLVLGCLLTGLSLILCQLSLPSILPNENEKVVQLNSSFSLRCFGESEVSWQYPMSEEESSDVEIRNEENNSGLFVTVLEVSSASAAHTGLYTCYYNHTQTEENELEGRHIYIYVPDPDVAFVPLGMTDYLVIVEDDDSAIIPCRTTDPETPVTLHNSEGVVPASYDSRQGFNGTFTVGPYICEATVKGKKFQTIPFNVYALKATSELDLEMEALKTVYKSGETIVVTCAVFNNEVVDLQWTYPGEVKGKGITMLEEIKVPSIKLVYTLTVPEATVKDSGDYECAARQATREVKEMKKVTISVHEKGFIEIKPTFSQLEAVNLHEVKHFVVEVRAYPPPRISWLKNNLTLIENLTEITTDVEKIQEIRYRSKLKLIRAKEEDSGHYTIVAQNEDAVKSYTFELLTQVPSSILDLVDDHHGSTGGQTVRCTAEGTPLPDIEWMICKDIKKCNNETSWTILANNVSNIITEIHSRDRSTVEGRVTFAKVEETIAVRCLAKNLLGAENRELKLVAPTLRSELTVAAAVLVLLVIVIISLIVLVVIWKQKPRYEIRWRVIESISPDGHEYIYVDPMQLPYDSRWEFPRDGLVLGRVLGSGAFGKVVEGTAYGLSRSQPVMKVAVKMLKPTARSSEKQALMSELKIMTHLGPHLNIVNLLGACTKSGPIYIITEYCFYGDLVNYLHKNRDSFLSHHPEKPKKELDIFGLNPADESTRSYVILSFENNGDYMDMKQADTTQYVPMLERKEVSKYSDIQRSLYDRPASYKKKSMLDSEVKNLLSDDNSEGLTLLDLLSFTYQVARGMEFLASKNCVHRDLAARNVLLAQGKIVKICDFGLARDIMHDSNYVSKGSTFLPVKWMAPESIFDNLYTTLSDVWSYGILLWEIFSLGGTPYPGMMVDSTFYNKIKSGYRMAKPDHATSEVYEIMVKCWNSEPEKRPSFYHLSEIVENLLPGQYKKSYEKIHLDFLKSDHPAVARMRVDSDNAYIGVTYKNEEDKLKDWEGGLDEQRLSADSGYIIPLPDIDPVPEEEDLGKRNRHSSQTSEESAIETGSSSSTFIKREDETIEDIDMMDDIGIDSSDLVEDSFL

[12] = target: Serine/threonine-protein kinase mTOR (Homo sapiens) (UniProt P42345); assay: Inhibition of FRAP1 (unknown origin) at 1 uM by kinase Glo assay
[13] = target: Serine/threonine-protein kinase Chk1 (Homo sapiens) (UniProt O14757); assay: Inhibition of CHK1 (unknown origin) at 1 uM by kinase Glo assay
[14] = target: Serine/threonine-protein kinase Chk2 (Homo sapiens) (UniProt O96017); assay: Inhibition of CHK2 (unknown origin) at 1 uM by kinase Glo assay
[15] = target: AMP-activated protein kinase (AMPK) alpha-1/beta-1/gamma-1 (Homo sapiens) (UniProt P54619+Q9Y478+Q13131); assay: Inhibition of AMPK A1/B1/G1 (unknown origin) at 1 uM by kinase Glo assay; type: protein-complex assay
[16] = target: Tyrosine-protein kinase receptor TYRO3 (Homo sapiens) (UniProt Q06418); assay: Inhibition of TYRO3 (unknown origin) at 1 uM
[17] = target: Angiopoietin-1 receptor (Homo sapiens) (UniProt Q02763); assay: Inhibition of TEK (unknown origin) at 1 uM
[18] = target: Proto-oncogene tyrosine-protein kinase receptor Ret (Homo sapiens) (UniProt P07949); assay: Inhibition of RET (unknown origin) at 1 uM
[19] = target: High affinity nerve growth factor receptor (Homo sapiens) (UniProt P04629); assay: Inhibition of NTRK1 (unknown origin) at 1 uM
[20] = target: Mitogen-activated protein kinase 8 (Homo sapiens) (UniProt P45983); assay: Inhibition of MAPK8 (unknown origin) at 1 uM
Sequence of Mitogen-activated protein kinase 8 (Homo sapiens) (P45983 whole entry): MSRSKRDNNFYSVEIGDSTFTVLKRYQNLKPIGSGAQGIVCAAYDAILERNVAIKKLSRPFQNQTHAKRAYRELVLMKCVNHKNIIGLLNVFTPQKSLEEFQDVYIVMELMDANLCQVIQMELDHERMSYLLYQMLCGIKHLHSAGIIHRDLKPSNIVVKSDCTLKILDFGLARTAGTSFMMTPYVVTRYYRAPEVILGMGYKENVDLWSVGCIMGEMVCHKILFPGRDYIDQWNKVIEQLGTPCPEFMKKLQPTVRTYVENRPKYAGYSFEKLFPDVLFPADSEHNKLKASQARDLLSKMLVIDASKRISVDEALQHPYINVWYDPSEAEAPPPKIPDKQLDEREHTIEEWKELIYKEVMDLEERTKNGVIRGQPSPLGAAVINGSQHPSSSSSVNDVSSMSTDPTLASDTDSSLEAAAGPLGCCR

[21] = target: Hepatocyte growth factor receptor (Homo sapiens) (UniProt P08581); assay: Inhibition of MET (unknown origin) at 1 uM
[22] = target: Tyrosine-protein kinase JAK3 (Homo sapiens) (UniProt P52333); assay: Inhibition of JAK3 (unknown origin) at 1 uM
Sequence of Tyrosine-protein kinase JAK3 (Homo sapiens) (P52333 whole entry): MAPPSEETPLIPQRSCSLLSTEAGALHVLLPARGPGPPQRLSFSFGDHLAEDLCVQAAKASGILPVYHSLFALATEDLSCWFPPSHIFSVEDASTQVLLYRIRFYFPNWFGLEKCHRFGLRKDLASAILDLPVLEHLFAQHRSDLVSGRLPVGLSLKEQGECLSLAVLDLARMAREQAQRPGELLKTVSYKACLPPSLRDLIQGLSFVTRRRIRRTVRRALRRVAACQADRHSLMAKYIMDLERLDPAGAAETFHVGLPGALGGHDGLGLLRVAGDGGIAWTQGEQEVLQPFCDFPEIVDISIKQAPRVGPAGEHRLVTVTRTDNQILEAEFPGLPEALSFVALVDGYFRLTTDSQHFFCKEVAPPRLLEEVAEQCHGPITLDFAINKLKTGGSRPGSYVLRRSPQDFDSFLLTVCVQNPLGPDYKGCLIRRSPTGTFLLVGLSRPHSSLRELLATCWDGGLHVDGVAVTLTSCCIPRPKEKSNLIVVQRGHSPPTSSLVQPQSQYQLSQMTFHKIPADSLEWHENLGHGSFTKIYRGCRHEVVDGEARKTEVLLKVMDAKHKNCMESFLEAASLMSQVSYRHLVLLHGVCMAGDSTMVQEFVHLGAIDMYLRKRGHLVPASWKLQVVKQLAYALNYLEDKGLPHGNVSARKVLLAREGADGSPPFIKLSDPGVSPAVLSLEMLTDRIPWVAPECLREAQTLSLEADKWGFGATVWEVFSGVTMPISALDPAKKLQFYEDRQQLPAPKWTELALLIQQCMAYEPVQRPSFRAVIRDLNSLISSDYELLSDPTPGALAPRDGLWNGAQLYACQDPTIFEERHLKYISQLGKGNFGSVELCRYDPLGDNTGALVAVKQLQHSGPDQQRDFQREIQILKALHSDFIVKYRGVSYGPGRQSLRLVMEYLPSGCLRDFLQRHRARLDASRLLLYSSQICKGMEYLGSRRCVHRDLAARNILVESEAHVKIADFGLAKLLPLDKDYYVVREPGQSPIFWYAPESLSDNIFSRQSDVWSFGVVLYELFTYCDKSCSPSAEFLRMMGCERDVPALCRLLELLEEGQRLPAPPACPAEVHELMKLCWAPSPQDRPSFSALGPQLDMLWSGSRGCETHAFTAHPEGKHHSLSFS

[23] = target: Tyrosine-protein kinase JAK1 (Homo sapiens) (UniProt P23458); assay: Inhibition of JAK1 (unknown origin) at 1 uM
Sequence of Tyrosine-protein kinase JAK1 (Homo sapiens) (P23458 whole entry): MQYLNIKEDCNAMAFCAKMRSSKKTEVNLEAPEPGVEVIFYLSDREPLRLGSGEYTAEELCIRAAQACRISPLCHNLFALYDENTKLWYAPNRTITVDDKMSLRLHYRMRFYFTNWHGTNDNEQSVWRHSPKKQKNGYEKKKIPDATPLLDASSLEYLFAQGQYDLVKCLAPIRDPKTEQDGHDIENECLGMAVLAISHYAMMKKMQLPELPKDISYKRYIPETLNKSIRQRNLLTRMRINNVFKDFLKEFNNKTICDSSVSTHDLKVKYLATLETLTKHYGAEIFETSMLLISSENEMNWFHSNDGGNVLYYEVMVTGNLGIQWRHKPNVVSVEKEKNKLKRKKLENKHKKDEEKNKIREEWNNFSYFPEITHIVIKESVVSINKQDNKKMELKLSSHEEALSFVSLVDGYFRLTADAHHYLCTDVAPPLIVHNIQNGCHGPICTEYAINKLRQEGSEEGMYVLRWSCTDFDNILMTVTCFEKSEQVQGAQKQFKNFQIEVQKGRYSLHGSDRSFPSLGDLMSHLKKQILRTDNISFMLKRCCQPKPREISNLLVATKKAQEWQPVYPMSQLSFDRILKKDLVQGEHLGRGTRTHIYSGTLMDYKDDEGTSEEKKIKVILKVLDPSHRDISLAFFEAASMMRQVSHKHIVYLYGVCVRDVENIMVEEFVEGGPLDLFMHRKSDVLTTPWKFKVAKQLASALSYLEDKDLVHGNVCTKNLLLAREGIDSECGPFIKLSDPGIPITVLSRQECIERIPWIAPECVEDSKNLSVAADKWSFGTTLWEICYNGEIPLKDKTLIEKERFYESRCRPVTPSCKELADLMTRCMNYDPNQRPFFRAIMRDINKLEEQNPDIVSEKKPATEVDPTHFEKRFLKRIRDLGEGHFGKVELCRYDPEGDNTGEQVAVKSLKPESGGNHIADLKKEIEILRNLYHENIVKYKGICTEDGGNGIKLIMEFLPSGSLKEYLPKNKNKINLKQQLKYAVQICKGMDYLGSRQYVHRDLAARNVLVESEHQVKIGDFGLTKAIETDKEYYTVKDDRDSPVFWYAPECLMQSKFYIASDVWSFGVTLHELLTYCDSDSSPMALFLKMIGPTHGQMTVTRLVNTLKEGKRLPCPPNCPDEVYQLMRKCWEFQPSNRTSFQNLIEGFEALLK

[24] = target: Glycogen synthase kinase-3 beta (Homo sapiens) (UniProt P49841); assay: Inhibition of GSK3B (unknown origin) at 1 uM
Sequence of Glycogen synthase kinase-3 beta (Homo sapiens) (P49841 whole entry, looked up): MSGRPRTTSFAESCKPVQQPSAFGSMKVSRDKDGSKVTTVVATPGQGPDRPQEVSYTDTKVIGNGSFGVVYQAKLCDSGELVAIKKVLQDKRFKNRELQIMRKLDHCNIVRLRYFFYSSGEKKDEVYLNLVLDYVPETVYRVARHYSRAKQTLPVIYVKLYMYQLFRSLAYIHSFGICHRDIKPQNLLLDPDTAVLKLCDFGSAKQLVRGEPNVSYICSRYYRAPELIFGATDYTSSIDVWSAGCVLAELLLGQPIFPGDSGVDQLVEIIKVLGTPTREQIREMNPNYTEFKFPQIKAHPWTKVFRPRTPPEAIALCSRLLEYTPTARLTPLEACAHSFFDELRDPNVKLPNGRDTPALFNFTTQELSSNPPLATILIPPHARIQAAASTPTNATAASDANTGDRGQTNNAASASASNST

[25] = target: Glycogen synthase kinase-3 alpha (Homo sapiens) (UniProt P49840); assay: Inhibition of GSK3A (unknown origin) at 1 uM
Sequence of Glycogen synthase kinase-3 alpha (Homo sapiens) (P49840 2-483 limits assumed): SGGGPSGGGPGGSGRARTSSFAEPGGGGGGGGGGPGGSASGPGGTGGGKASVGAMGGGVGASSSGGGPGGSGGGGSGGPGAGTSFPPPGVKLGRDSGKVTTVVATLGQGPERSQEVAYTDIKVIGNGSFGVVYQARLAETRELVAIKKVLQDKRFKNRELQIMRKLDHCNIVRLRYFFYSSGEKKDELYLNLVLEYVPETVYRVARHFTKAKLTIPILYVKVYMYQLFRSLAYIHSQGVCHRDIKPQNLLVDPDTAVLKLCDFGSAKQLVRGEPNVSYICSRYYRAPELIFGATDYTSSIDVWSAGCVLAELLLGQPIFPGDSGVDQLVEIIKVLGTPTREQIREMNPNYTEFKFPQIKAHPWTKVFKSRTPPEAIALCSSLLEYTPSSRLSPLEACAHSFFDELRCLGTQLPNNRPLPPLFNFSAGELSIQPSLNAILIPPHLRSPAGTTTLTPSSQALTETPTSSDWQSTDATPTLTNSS

[26] = target: Receptor-type tyrosine-protein kinase FLT3 (Homo sapiens) (UniProt P36888); assay: Inhibition of FLT3 (unknown origin) at 1 uM
[27] = target: Vascular endothelial growth factor receptor 1 (Homo sapiens) (UniProt P17948); assay: Inhibition of FLT1 (unknown origin) at 1 uM
[28] = target: Ephrin type-A receptor 2 (Homo sapiens) (UniProt P29317); assay: Inhibition of EPHA2 (unknown origin) at 1 uM
[29] = target: CDK2/Cyclin A2 (Homo sapiens) (UniProt P24941+P20248); assay: Inhibition of CDK2/cyclin A (unknown origin) at 1 uM; type: protein-complex assay
[30] = target: Aurora kinase B (Homo sapiens) (UniProt Q96GD4); assay: Inhibition of AURKB (unknown origin) at 1 uM
Sequence of Aurora kinase B (Homo sapiens) (Q96GD4 whole entry): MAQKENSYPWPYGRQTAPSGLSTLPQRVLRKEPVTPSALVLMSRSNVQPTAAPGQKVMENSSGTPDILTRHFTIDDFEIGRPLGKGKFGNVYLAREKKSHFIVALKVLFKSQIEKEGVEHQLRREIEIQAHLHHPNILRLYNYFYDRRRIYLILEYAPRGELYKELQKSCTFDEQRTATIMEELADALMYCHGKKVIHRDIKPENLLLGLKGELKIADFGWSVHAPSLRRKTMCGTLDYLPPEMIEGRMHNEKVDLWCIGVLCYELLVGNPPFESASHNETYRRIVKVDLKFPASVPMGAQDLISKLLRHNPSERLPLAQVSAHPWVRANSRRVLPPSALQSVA

[31] = target: Tyrosine-protein kinase ABL1 (Homo sapiens) (UniProt P00519); assay: Inhibition of ABL1 (unknown origin) at 1 uM
[32] = target: Vascular endothelial growth factor receptor 2 (Homo sapiens, UniProt P35968); assay: biochemical; type: cell-based, Sf9
Description: Inhibition of recombinant GST tagged VEGFR2 (789 to 1356) (unknown origin) transfected in insect sf9 cells after 120 mins by wallac counting analysis

U-937 = assay: cells; conditions: Homo sapiens, U-937, 72 h
Description: Cytotoxicity against human FLT3 negative U937 cells after 72 hrs by MTS assay

cells = conditions: Homo sapiens, RS4-11, 72 h
Description: Cytotoxicity against human RS4:11 cells harboring wild type FLT3 after 72 hrs by MTS assay

MOLM-13 [33] = assay: cells; conditions: Homo sapiens, MOLM-13, 72 h
Aurora kinase A = target: T1, Aurora kinase A (Homo sapiens, UniProt O14965); assay: biochemical
T1 sequence (O14965 whole entry): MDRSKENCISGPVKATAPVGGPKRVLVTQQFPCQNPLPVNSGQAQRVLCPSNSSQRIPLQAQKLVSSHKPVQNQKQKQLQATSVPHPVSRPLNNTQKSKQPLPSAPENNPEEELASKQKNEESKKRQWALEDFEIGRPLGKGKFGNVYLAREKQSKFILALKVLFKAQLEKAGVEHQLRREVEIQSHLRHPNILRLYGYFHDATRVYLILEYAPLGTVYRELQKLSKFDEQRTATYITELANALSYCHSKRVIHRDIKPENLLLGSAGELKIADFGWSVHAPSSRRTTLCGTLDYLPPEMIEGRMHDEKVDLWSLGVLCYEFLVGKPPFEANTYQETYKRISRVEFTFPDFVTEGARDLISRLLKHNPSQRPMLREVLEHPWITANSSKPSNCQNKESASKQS
Description: Inhibition of recombinant GST tagged Aurora A kinase (123 to 401) (unknown origin) transfected in insect sf9 cells after 90 mins by wallac counting analysis

**Q.** With `CC(C)(C)c1cc(NC(=O)NCc2ccc(-c3cc(NC(=O)c4ccc(OCCN5CCOCC5)cc4)[nH]n3)cc2)no1` as the molecule, how does the Activity (Mus musculus [1]) read?
**A.** Non-toxic

**Q.** What about the inhibition in vivo at 10 mg/kg (MOLM-13 [2]) of the same molecule?
**A.** 84%

**Q.** What about the inhibition (MOLM-13 [3]) of the same molecule?
**A.** Active

**Q.** And the inhibition (MOLM-13 [4])?
**A.** Active

**Q.** And the Activity (Mus musculus [5])?
**A.** Non-toxic

**Q.** What about the Activity (Mus musculus [6]) of the same molecule?
**A.** Non-toxic

**Q.** And the bioavailability [7]?
**A.** 1%

**Q.** And the half-life [8]?
**A.** 6.2 h

**Q.** What about the AUC(0-inf) [9] of the same molecule?
**A.** 3140 ng·h/mL

**Q.** And the IC50 [10]?
**A.** 1 nM

**Q.** What about the inhibition [11] of the same molecule?
**A.** 85%

**Q.** And the inhibition [12]?
**A.** -1%

**Q.** And the inhibition [13]?
**A.** 2%

**Q.** What about the inhibition [14] of the same molecule?
**A.** 10%

**Q.** What about the inhibition [15] of the same molecule?
**A.** 48%

**Q.** What about the inhibition [16] of the same molecule?
**A.** 24%

**Q.** What about the inhibition [17] of the same molecule?
**A.** 83%

**Q.** What about the inhibition [18] of the same molecule?
**A.** 97%

**Q.** And the inhibition [19]?
**A.** 98%

**Q.** And the inhibition [20]?
**A.** -3%

**Q.** And the inhibition [21]?
**A.** 2%

**Q.** And the inhibition [22]?
**A.** 27%

**Q.** What about the inhibition [23] of the same molecule?
**A.** 82%

**Q.** What about the inhibition [24] of the same molecule?
**A.** 2%

**Q.** What about the inhibition [25] of the same molecule?
**A.** 6%

**Q.** And the inhibition [26]?
**A.** 100%

**Q.** What about the inhibition [27] of the same molecule?
**A.** 99%

**Q.** And the inhibition [28]?
**A.** 19%

**Q.** And the inhibition [29]?
**A.** 5%

**Q.** And the inhibition [30]?
**A.** 79%

**Q.** What about the inhibition [31] of the same molecule?
**A.** 21%

**Q.** And the IC50 [32]?
**A.** 28 nM

**Q.** What about the GI50 (U-937) of the same molecule?
**A.** > 20000 nM

**Q.** And the GI50 (cells)?
**A.** 900 nM

**Q.** And the GI50 (MOLM-13 [33])?
**A.** 3 nM

**Q.** What about the IC50 (Aurora kinase A) of the same molecule?
**A.** > 1000 nM
